Results published in patent US8148368B2, “7-nitro-2-(3-nitro phenyl)-4H-3,1-benzoxazin-4-one or derivatives thereof for treating or preventing antiviral infections” (priority 2010, dated 2012).

Legend:
HCV = details: ribavirin alone; cited from earlier work
[1] = tested on: HCV 3a genotype in MDBK cells; experiment: Combination with interferon-α against HCV 3a genotype in MDBK cells, real time quantitative RT-PCR; type: cell-based, hepatitis C virus; details: interferon-α 5 IU/well, 6 hrs pre-incubation, HCV 3a 2×10^4 copies per well, 18 hrs
Experimental: Surprising synergism was recorded when Compound 1 was combined with Interferon alpha. […] MDBK cells were incubated for 6 hrs with compounds and interferon alone, or combination of compound and interferon in a 96-well plat. After 6 hrs cells were infected with 2×10^4 copies of HCV 3a genotype per well and incubated for additional 18 hrs. At the end of incubation period, total RNA was extracted by Gentra kit, and the levels of HCV RNA remaining were determined, by real time Quantitative RT-PCR assay and are shown as percentage of HCV RNA survival in cells. Results are represented as the average and standard error for three independent experiments.

[2] = tested on: HCV sub-genomic replicon in FCA-4 cells; experiment: Antiviral effect in FCA-4 HCV 1b sub-genomic replicon cells, RT-PCR of HCV RNA; type: cell-based, hepatitis C virus
Source text: FCA-4 sub genomic replicon was bicistronic construct composed of the HCV IRES (nucleotides 1 to 377 of the 5′NCR); the neomycin phosphotransferase (neo) gene; the encephalomyocarditis IRES, which mediates the translation of HCV nonstructural proteins NS3 through NS5; and the 3′NCR as shown in FIG. 2. […] FCA-4 sub-genomic replicon consists of single adaptive mutation and a deletion of a serine residue at position 1176 (Guo et al, 2001).
The bicistronic RNA molecule contains the HCV IRES and a few core-coding sequences, which are followed by neomycin phosphotransferase gene (Neor). These sequences are followed by the encephalomyocarditis virus IRES placed in front of HCV sequences encoding nonstructural protein NS3 to NS5B, terminating at the HCV 3NCR.
To determine the antiviral effect against HCV, FCA 4 cells were seeded in six well plates. After 24 h, media containing 20 μM of test compound was added to the plates. Cells were incubated at 37° C. in CO2 incubator for additional 48 h. At the end of the incubation, cells were harvested, RNA was extracted and cDNA were generated by oligo dT priming cDNA was amplified by PCR using primers specific to the 5′ UTR and NS5B gene of HCV. Amplification of GAPDH mRNA served as an internal control.

SMILES | patients with serum amino transferase levels reduced to normal (HCV) [%] | effect of combination with interferon-α on HCV RNA [1] | GAPDH mRNA expression (internal control) ([2]; 20 μM, 48 h, FCA 4 cells) | HCV RNA expression ([2]; 20 μM, 48 h, FCA 4 cells, RT-PCR (5′ UTR and NS5B primers)) | antiviral suppression in relation to cytotoxicity ([2]; FCA4 cells) | concentration showing maximum reduction of HCV expression ([2]; dose dependent, FCA4 sub-genomic replicon, 48 h, FIG. 3) [µM]
NC(=O)c1ncn([C@@H]2O[C@H](CO)[C@@H](O)[C@H]2O)n1 [Ribavirin, 1-β-D-ribofuranosyl-1-1,2,4-triazole-3-carboxamide] | 40 |  |  |  |  | 
O=c1oc(-c2cccc([N+](=O)[O-])c2)nc2cc([N+](=O)[O-])ccc12 [Compound 1, 7-nitro-2-(3-nitrophenyl)-4H-3,1-benzoxazin-4-one] |  | synergistic effect | remains unaffected | inhibited HCV RNA expression significantly | independent of cytotoxicity | 10
